Data on 15 molecules can be found in patent publication US6960597B2, “Aza-bridged-bicyclic amino acid derivatives as α4 integrin antagonists” (Orth-McNeil Pharmaceutical, Inc., priority 2000, dated 2005).

Like-named read-outs stand apart in the source and are kept apart here. Where only a bound is given, the exact number is not on record here.

One assay addresses T1, α4β1 integrin receptor (Homo sapiens, UniProt P05556+P13612).
T1 construct: Ramos Cell Adhesion Assay (α4β1 Mediated Adhesion/VCAM-1); endogenous in cells; host or cells: Ramos cells
The experiment in a line: Ramos Cell Adhesion Assay (α4β1 Mediated Adhesion/VCAM-1). The format is cell-based. As for the experimental part: Ramos Cell Adhesion Assay (α4β1 Mediated Adhesion/VCAM-1)
(§1) Immulon 96 well plates (Dynex) were coated with 100 μL recombinant hVCAM-1 at 4.0 μg/mL in 0.05 M NaCO3 buffer pH 9.0 overnight at 4° C. (R&D Systems). Plates were washed 3 times in PBS with 1% BSA and blocked for 1 h @ room temperature in this buffer. PBS was removed and compounds to be tested (50 μL) were added at 2× concentration. Ramos cells, (50 μL at 2×10^6/mL) labeled with 5 μM Calcein AM (Molecular Probes) for 1 h at 37° C., were added to each well and allowed to adhere for 1 h at room temperature. Plates were washed 3× in PBS+1% BSA and cells were lysed for 15 minutes in 100 μL of 1 M Tris pH 8.0 with 1% SDS. The plate was read at 485 nm excitation and 530 nm emission.

For a further assay, the target named is T2, human α4β7 (Homo sapiens, UniProt P13612+P26010).
T2 construct: expressed in transfected cells
T2 sequence (P13612 34-1032): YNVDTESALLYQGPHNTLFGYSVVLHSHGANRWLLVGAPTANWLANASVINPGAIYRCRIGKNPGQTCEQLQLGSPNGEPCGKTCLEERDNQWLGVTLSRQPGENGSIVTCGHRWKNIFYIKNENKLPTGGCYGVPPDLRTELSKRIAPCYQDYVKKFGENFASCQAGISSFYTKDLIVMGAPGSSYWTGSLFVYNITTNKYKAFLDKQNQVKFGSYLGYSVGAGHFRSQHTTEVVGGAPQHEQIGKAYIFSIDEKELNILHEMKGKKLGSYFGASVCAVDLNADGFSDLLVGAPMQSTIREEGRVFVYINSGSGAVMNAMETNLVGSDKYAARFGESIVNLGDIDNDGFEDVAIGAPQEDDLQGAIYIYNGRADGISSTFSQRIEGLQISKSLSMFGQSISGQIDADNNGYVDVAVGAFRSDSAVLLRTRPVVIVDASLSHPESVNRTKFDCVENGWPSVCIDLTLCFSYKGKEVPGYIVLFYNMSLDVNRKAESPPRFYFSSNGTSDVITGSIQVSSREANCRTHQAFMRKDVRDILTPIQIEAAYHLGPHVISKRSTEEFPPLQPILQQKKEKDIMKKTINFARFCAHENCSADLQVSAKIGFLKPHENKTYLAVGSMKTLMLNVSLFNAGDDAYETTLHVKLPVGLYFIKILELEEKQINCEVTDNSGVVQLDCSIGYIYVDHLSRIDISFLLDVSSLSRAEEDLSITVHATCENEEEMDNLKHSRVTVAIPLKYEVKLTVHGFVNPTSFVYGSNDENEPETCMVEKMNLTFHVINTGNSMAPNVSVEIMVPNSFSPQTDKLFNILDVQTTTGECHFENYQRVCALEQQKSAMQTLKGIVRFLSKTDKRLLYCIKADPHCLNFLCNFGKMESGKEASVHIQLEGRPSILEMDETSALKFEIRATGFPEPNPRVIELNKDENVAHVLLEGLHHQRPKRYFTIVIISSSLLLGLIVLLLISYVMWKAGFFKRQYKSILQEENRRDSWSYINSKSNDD
T2 sequence (P26010 20-798): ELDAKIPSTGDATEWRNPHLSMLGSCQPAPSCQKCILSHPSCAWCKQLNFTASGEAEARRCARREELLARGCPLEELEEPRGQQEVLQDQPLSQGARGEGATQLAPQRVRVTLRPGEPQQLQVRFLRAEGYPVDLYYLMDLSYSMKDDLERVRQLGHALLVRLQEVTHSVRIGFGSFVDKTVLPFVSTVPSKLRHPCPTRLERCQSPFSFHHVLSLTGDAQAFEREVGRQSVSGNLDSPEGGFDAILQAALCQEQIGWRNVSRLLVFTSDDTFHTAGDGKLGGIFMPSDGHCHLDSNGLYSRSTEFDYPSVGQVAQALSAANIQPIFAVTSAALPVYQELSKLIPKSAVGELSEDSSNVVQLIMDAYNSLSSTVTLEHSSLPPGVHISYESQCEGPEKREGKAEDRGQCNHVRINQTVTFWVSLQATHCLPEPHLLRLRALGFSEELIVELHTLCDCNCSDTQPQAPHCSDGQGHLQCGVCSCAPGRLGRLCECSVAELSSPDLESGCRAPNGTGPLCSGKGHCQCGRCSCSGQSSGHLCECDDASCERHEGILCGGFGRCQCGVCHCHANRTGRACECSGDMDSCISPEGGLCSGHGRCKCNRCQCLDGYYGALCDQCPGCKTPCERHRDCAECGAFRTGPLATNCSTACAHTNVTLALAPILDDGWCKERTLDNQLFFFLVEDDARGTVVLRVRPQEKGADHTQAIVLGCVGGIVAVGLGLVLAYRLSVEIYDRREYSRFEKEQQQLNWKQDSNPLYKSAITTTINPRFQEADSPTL
Put plainly: α4β7-K562 Cell Adhesion Assay (α4β7 Mediated Adhesion/VCAM-1). The class given is cell-based. As for the experimental part: α4β7-K562 Cell Adhesion Assay (α4β7 Mediated Adhesion/VCAM-1)
as §1, with “A stable cell line of K562 cells expressing human α4β7,” for “Ramos cells,”

Where [1] appears, read: Table III, read-out: Inhibition of Binding of Ramos Cells to Immobilized VCAM-1 IC50.
[2] abbreviates: Table III, μM, read-out: Inhibition of Binding of Ramos Cells to Immobilized VCAM-1 IC50.
The mark [3] stands for this setting: Table IV, μM, read-out: Inhibition of Binding of K562 Cells to Immobilized VCAM-1 IC50.
[4] abbreviates: Table IV, read-out: Inhibition of Binding of K562 Cells to Immobilized VCAM-1 IC50.

T1 sequence (P05556 21-798, one chain of several): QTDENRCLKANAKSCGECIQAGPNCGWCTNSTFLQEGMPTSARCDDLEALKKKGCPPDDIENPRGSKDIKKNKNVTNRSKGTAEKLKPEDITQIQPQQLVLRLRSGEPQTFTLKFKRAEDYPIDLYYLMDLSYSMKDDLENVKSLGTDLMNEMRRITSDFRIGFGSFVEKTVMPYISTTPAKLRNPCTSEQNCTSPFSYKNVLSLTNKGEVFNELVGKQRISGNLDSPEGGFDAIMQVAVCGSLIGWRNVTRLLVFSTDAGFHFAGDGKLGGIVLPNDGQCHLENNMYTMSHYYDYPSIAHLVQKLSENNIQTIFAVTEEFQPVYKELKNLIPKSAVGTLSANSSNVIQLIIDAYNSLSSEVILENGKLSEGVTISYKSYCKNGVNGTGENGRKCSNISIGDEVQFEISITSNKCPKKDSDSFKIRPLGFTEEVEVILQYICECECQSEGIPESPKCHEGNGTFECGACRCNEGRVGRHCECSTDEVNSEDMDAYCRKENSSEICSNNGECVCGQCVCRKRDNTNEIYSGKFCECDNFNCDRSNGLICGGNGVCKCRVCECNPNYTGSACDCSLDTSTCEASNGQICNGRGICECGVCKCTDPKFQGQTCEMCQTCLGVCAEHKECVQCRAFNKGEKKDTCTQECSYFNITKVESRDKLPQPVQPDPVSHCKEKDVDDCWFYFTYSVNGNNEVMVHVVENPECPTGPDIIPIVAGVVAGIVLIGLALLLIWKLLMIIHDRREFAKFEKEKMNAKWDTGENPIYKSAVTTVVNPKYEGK

Regarding `CN(C)C(=O)Nc1ccc(C[C@H](NC(=O)C2C3CCC(CC3)N2S(=O)(=O)c2ccccc2)C(=O)O)cc1` (stereo partly drawn) [Cpd 61, 4-[[(dimethylamino)carbonyl]amino]-N-[[2-(phenylsulfonyl)-2-azabicyclo[2.2.2]oct-3-yl]carbonyl]-L-phenylalanine], the IC50 (in general, the concentration needed to halve the response being measured) at α4β1 integrin receptor (setting [1]) is 0.056 µM.
`Cc1ccc(S(=O)(=O)N2C3CCC(CC3)C2C(=O)N[C@@H](Cc2ccc(-c3ccccc3)cc2)C(=O)O)cc1` (stereo partly drawn) [Cpd 33, 4-phenyl-N-[[2-[(4-methylphenyl)sulfonyl]-2-azabicyclo[2.2.2]oct-3-yl]carbonyl]l-L-phenylalanine]: the results for the IC50 on α4β1 integrin receptor (setting [2]) and at human α4β7 (setting [3]) were greater than 5 µM and greater than 10 µM, respectively.
Consider `Cc1ccc(C)n1-c1ccc(C[C@H](NC(=O)C2C3CCC(CC3)N2S(=O)(=O)c2ccccc2)C(=O)O)cc1` (stereo partly drawn) [Cpd 49, 4-(2,5-dimethyl-1H-pyrrol-1-yl)-N-[[2-(phenylsulfonyl)-2-azabicyclo[2.2.2]oct-3-yl]carbonyl]-L-phenylalanine], for which the IC50 on α4β1 integrin receptor (setting [2]) was greater than 5 µM; at human α4β7 (setting [3]) it was greater than 10 µM.
In the case of `O=C(Nc1ccc(C[C@H](NC(=O)C2C3CCC(CC3)N2S(=O)(=O)c2ccccc2)C(=O)O)cc1)c1c(F)cccc1F` (stereo partly drawn) [Cpd 15, 4-[(2,6-difluorobenzoyl)amino]-N-[[2-(phenylsulfonyl)-2-azabicyclo[2.2.2]oct-3-yl]carbonyl]-L-phenylalanine], the half-inhibitory concentration (IC50) on α4β1 integrin receptor (setting [1]) was 0.067 µM; at human α4β7 (setting [4]), 1.39 µM.
Consider `CC(C)(C)c1ccc(C[C@H](NC(=O)C2C3CCC(CC3)N2S(=O)(=O)c2ccccc2)C(=O)O)cc1` (stereo partly drawn) [Cpd 58, 4-(1,1-dimethylethyl)-N-[[2-(phenylsulfonyl)-2-azabicyclo[2.2.2]oct-3-yl]carbonyl]-L-phenylalanine], for which the IC50 at α4β1 integrin receptor (setting [1]) was 0.523 µM; at human α4β7 (setting [3]) it was greater than 10 µM.
Consider `Cc1ccc(S(=O)(=O)N2C3CCC(CC3)C2C(=O)N[C@@H](Cc2ccc(OCc3ccccc3)cc2)C(=O)O)cc1` (stereo partly drawn) [Cpd 30, 4-(phenylmethoxy)-N-[[2-[(4-methylphenyl)sulfonyl]-2-azabicyclo[2.2.2]oct-3-yl]carbonyl]-L-phenylalanine], for which the IC50 at α4β1 integrin receptor (setting [2]) is greater than 5 µM; at human α4β7 (setting [3]) it was greater than 10 µM.
For `Cc1ccc(S(=O)(=O)N2C3CCC(CC3)C2C(=O)N[C@@H](Cc2ccc(NC(=O)c3ccccc3)cc2)C(=O)O)cc1` (stereo partly drawn) [Cpd 25, 4-(benzoylamino)-N-[[2-[(4-methylphenyl)sulfonyl]-2-azabicyclo[2.2.2]oct-3-yl]carbonyl]-L-phenylalanine], the concentration for half-maximal inhibition (IC50) was 0.903 µM on α4β1 integrin receptor (setting [1]) and greater than 10 µM on human α4β7 (setting [3]).
On to `O=C(Nc1ccc(C[C@H](NC(=O)[C@H]2C3CCC(C3)N2S(=O)(=O)c2ccccc2)C(=O)O)cc1)c1c(Cl)cccc1Cl` (stereo partly drawn) [Cpd 16b, 4-[(2,6-dichlorobenzoyl)amino]-N-[[(3R)-2-(phenylsulfonyl)-2-azabicyclo[2.2.1]hept-3-yl]carbonyl]-L-phenylalanine], for which the IC50 was 0.24 µM at α4β1 integrin receptor (Table I, racemic mixtures and resolved (S,S) and (R,S) diastereomers, read-out: Antagonist IC50 Activity α4β1); 0.24 µM at α4β1 integrin receptor (setting [1]); 0.393 µM at human α4β7 (Table I, racemic mixtures and resolved (S,S) and (R,S) diastereomers, read-out: Antagonist IC50 Activity α4β7).
`Cc1ccc(S(=O)(=O)N2C3CCC(CC3)C2C(=O)N[C@@H](Cc2cccc(NC(=O)c3c(Cl)cccc3Cl)c2)C(=O)O)cc1` (stereo partly shown) [Cpd 37, 3-[(2,6-dichlorobenzoyl)amino]-N-[[2-[(4-methylphenyl)sulfonyl]-2-azabicyclo[2.2.2]oct-3-yl]carbonyl]phenylalanine]: the 50% inhibitory concentration (IC50) is greater than 5 µM at α4β1 integrin receptor (setting [2]) and greater than 10 µM at human α4β7 (setting [3]).
As to `Cc1ccc(S(=O)(=O)N2C3CCC(CC3)C2C(=O)N[C@@H](Cc2ccc(NC(=O)c3ccccc3Br)cc2)C(=O)O)cc1` (stereo partly drawn) [Cpd 14, 4-[(2-bromobenzoyl)amino]-N-[[2-[(4-methylphenyl)sulfonyl]-2-azabicyclo[2.2.2]oct-3-yl]carbonyl]-L-phenylalanine], the IC50 came out at 0.16 µM on α4β1 integrin receptor (setting [1]) and 0.913 µM at human α4β7 (setting [4]).
The corresponding values for `O=C(Nc1ccc(C[C@H](NC(=O)C2C3CCC(CC3)N2S(=O)(=O)c2ccccc2)C(=O)O)cc1)c1c(F)cc(F)cc1F` (stereo partly drawn) [Cpd 43, 4-[(2,4,6-trifluorobenzoyl)amino]-N-[[2-(phenylsulfonyl)-2-azabicyclo[2.2.2]oct-3-yl]carbonyl]-L-phenylalanine] are 0.103 µM and 0.442 µM.
Regarding `O=C(Nc1ccc(C[C@H](NC(=O)C2C3CCC(CC3)N2S(=O)(=O)c2ccc(F)cc2)C(=O)O)cc1)c1c(Cl)cccc1Cl` (stereo partly drawn) [Cpd 54, 4-[(2,6-dichlorobenzoyl)amino]-N-[[2-[(4-fluorophenyl)sulfonyl]-2-azabicyclo[2.2.2]oct-3-yl]carbonyl]-L-phenylalanine], the half-inhibitory concentration (IC50) was 0.146 µM on α4β1 integrin receptor (setting [1]) and 0.118 µM at human α4β7 (setting [4]).
`COc1cccc(OC)c1-c1ccc(C[C@H](NC(=O)[C@@H]2C3CCC(CC3)N2S(=O)(=O)c2ccccc2)C(=O)O)cc1` [Cpd 8, 4-(2,6-dimethoxyphenyl)-N-[[(3S)-2-(phenylsulfonyl)-2-azabicyclo[2.2.2]oct-3-yl]carbonyl]-L-phenylalanine]: the IC50 is 0.081 µM at α4β1 integrin receptor (setting [1]) and 0.343 µM at human α4β7 (setting [4]).
For the molecule `O=C(Nc1ccc(C[C@H](NC(=O)C2C3CCC(CC3)N2S(=O)(=O)c2ccccc2)C(=O)O)cc1)c1c(F)c(F)cc(F)c1F` (stereo partly drawn) [Cpd 44, 4-[(2,3,5,6-tetrafluorobenzoyl)amino]-N-[[2-(phenylsulfonyl)-2-azabicyclo[2.2.2]oct-3-yl]carbonyl]-L-phenylalanine], the IC50 at α4β1 integrin receptor (setting [1]) turned out to be 0.309 µM.
The same measure, in the same setting: the result for `O=C(Nc1ccc(C[C@H](NC(=O)[C@@H]2C3CCC(CC3)N2S(=O)(=O)c2ccccc2)C(=O)O)cc1)c1c(Cl)cncc1Cl` [Cpd 60, 4-[[(3,5-dichloro-4-pyridinyl)carbonyl]amino]-N-[[(3S)-2-(phenylsulfonyl)-2-azabicyclo[2.2.2]oct-3-yl]carbonyl]-L-phenylalanine] reads 0.009 µM.
